The record followed here is PubChem BioAssay (NCI).

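Five compound concentrations were applied to cells in 96-well plates for 48 hours; endpoints were derived by simple linear interpolation of the resulting dose-response curve. TGI is the concentration that stops growth completely.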

What is called TGI is the concentration giving total growth inhibition. The low end stands for greater sensitivity of the cells, the high end for lower sensitivity of the cells.

Assay in all cases: DTP human tumour cell line panel, 48 h
In assay [1] the test system is ACHN renal.
Assay [2] concerns PC-3 prostate.
The test system of assay [3] is HCT-116 colon.
Assay [4] concerns SNB-19 CNS.
Assay [5] relates to EKVX NSCLC.
In assay [6] the test system is TK-10 renal.
Assay [7] concerns SNB-75 CNS.
Assay [8] has as its system OVCAR-5 ovarian.
Assay [9] relates to OVCAR-3 ovarian.
Assay [10] relates to NCI/ADR-RES ovarian.
Assay [11] has as its system CCRF-CEM leukemia.

As to `CCCCCCCCCCCCP(=O)(O)OCC(N)C(=O)O` (stereo not drawn), the TGI was over 100 µM in assay [1]; 36.9 µM in assay [2]; 30.3 µM in [3]; 44.7 µM in assay [4]; over 100 µM in assay [5]; over 100 µM in assay [6]. For the same molecule, the TGI in [7] is 40.3 µM; in [8], over 100 µM; in assay [9], 36.5 µM; in assay [10] it was over 100 µM.

Turning to `CP(C)(=S)P(C)(C)=S`, the TGI in assay [1], in [11], in assay [2], in assay [3], in [4] and in [5] was over 100 µM each time. Moreover, the TGI in [6], in assay [7], in assay [8] and in assay [10] was over 100 µM each time.

Regarding `O=C1O[C@H]2[C@@H]3OC(=O)c4cc(O)c(O)c(O)c4-c4c(cc(O)c(O)c4O)C(=O)OC[C@H]2O[C@@H](OC(=O)c2cc(O)c(O)c(O)c2)[C@@H]3OC(=O)c2cc(O)c(O)c3c2[C@@H]2C1=CC(=O)C(O)(O)C2(O)O3` (stereo partly drawn), the TGI is over 100 µM in assay [1]; over 100 µM in [11]; over 100 µM in assay [2]; 32 µM in assay [3]; over 100 µM in [4]; over 100 µM in [5]. The TGI in assay [7] was 86.4 µM; in [8], 67.1 µM; in assay [9] it was over 100 µM; in assay [10], over 100 µM.

Regarding `CC(=O)Nc1ccc(-c2nc3ccccc3s2)cc1O`, the TGI in assay [1], in assay [11], in assay [2], in assay [3], in assay [4] and in assay [6] was over 100 µM in each case. Also, the TGI is over 100 µM in assay [7], 93.8 µM in assay [8], over 100 µM in assay [9] and 64.4 µM in assay [10].

Take `[N-]=[N+]=NC1=C(c2ccccc2)C(=O)c2cccc3cccc1c23`: the TGI in assay [11] is over 100 µM; in assay [2], over 100 µM; in assay [3], over 100 µM; in assay [4], over 100 µM; in assay [6] it was 74.6 µM; in [7] it was 76.5 µM. Also, the TGI in assay [8], in assay [9] and in assay [10] was over 100 µM in each case.

`COc1cccc(-n2c(N)c(-c3nc4cc(C(F)(F)F)ccc4s3)c3ccc([N+](=O)[O-])cc3c2=O)c1`: the TGI in assay [1], in [2], in assay [3], in [4], in assay [5] and in assay [6] was over 100 µM each time. The TGI in assay [7], in assay [8], in assay [9] and in [10] was over 100 µM throughout.

Turning to `C/C(=N\Nc1nc2ccccc2o1)c1ccncn1`, the total growth inhibition concentration (TGI) was over 100 µM in [1]; over 100 µM in [11]; 36.6 µM in assay [2]; over 33.6 µM in assay [3]; over 100 µM in assay [4]; over 100 µM in assay [5]. In addition, the TGI is over 63.4 µM in assay [6], over 48.2 µM in [7], over 100 µM in assay [8] and 0.84 µM in [10].

Regarding `O=C1NN(c2ccccc2)C(=O)C2C3c4ccccc4C(c4ccccc43)C12` (stereo not drawn), the TGI in assay [1], in assay [11], in assay [2], in assay [3], in assay [4] and in assay [5] was over 100 µM in each case. For the same molecule, the TGI in [6], in assay [7], in [9] and in assay [10] was over 100 µM in each case.

In the case of `CCNc1ncnc2n[nH]nc12`, the TGI in assay [1], in [11], in assay [2], in assay [3], in assay [4] and in assay [5] was over 100 µM in each case. Moreover, the TGI in [6], in assay [7], in assay [9] and in assay [10] was over 100 µM each time.

With `CCNCCNC(=O)c1ccc(Br)cc1`, the TGI in [1], in [11], in assay [2], in assay [4], in assay [5] and in [6] was over 100 µM each time. Moreover, the TGI in assay [7], in [8], in assay [9] and in assay [10] was over 100 µM throughout.

On to `CC(=O)OCc1cn(S(=O)(=O)c2ccc(C)cc2)cn1`, for which the TGI in assay [1], in [11], in assay [2], in assay [3], in assay [4] and in assay [5] was over 100 µM each time. Besides, the TGI was over 100 µM in [6], over 100 µM in [7], 85.9 µM in assay [9] and over 100 µM in [10].

For `CN1CCN(c2ccc(-n3cc(C(=O)O)c(=O)c4cc(F)c(N5CCN(C)CC5)cc43)nc2)CC1`, the TGI in assay [11], in [2], in assay [3], in assay [4], in assay [5] and in [6] was over 100 µM throughout. In addition, the TGI in assay [7], in assay [8], in assay [9] and in assay [10] was over 100 µM throughout.

On to `c1ccc2c(c1)C(=Nc1ccc(N=C3c4ccccc4-c4ccccc43)cc1)c1ccccc1-2`, for which the TGI in assay [11], in assay [2], in assay [3], in [4], in assay [5] and in assay [6] was over 100 µM throughout. Moreover, the TGI in assay [8], in assay [9] and in assay [10] was over 100 µM each time.
